Results on eight compounds are retold here after article PMC5081312, “Antifouling phenyl ethers and other compounds from the invertebrates and their symbiotic fungi collected from the South China Sea” (AMB Express, 2016).

In brackets after ≈: the same amount, converted by molar mass. Read-outs that look alike come from different tables or passages of the source.

The LC50 is the concentration lethal to half of the exposed cells or organisms. Usually EC50 stands for the concentration that produces a half-maximal response.

In series [1] the test system is cyprids of barnacle B. amphitrite. Put plainly: Anti-larval settlement bioassay (antifouling activity and larval toxicity). In kind it is in vivo. The conditions noted are these: for LC50/EC50 ratio (therapeutic ratio): B. amphitrite cyprids, ratio >15 considered non-toxic; for EC50: concentration where 50% of larvae were inhibited to settle vs negative control, read-out: EC50 (larval settlement inhibition). The protocol:
(§1) The newly released nauplii were screened with the aperture of 90 μm. The newly released nauplii were raised in filtered seawater (FSW) at 28 °C with mild aeration and fed with Chaetoceros gracilis Schutt at 1 × 10^6 cells ml^−1. The nauplius larvae transformed into cyprids (ready to attach and metamorphose) after 3.5 days. Newly transformed cyprids were kept in filtered seawater at 4 °C overnight before being used in the anti-larval settlement bioassay.
(§2) The antifouling activity was evaluated as larval settlement inhibition against the cyprids of barnacle B. amphitrite using 24-well polystyrene plates (Nunc, Naperville, CA, USA). Each compound was dissolved in a stock solution of DMSO with the concentration of 50 mg ml^−1, and then diluted 1000 times with FSW to 50 μg ml^−1. The compound was further transferred into FSW to make up the following test solution with the concentrations ranging from 25 to 0.50 μg ml^−1. One millilitre of the test solution and 16–20 larvae were allocated to each well of the 24-well plate. Each concentration had three replicate wells. The plates were cultivated in darkness for 48 h at 28 °C. The effects of the test compounds against the larvae settlement were determined by examining the plates under a dissecting microscope to check for (1) settled larvae (attached and metamorphosed), (2) swimming larvae, as well as (3) any possible toxic effects of the treatments (dead and paralyzed). The number of the settled larvae was expressed as a percentage of the total number of larvae per well. Each compound was tested by triplicate experiments using three different batches of larvae.
(§3) The EC50 and LC50 values of each compound were calculated according to the records of anti-larval settlement experiments. […] Then a concentration–response curve was plotted and a tread line was set up.

For series [2] the test system is unchanged. Also noted: method as in Jacobson and Willingham [2000]. The conditions noted are these: concentration used for positive control; ref Jacobson and Willingham [2000]; cited from earlier work.
A short description of series [3]: Anti-larval settlement bioassay (antifouling activity and larval toxicity). It counts as in vivo. Particulars: Balanus (Amphibalanus) amphitrite (barnacle cyprid larvae), in vivo, cyprids of B. amphitrite, 48 h at 28 °C, concentration where 50% of larvae were dead; for LC50 at 48 h: other: larvae immersed in test solution. The method, then:
as §1, §2, §3

The next series is described as follows: in vivo. The conditions noted are these: Artemia salina (brine shrimp), in vivo. The protocol: (§4) The brine shrimp lethality bioassay on Artemia salina was performed to predict the toxicity of the compounds. The test was conducted using 24-well plate as described previously according to standard protocols (Solis et al. [1993]; Meyer et al. [1982]). The wells containing FSW-DMSO (v/v 1:1000) served as the negative controls. Adriamycin was used as a positive control. There were three replicate wells per concentration, and each bioassay experiment had three replicates using three different batches of brine shrimp.

Series [4] has as its system brine shrimps Artemia salina. Put plainly: in vivo. Particulars: read-out: LC50 (brine shrimp lethality); Artemia salina. The protocol: as §4
[5] abbreviates: cyprids of B. amphitrite, 48 h at 28 °C.
[6] abbreviates: Amphibalanus amphitrite, 48 h, cyprids of B. amphitrite, 48 h at 28 °C.
[7] abbreviates: LC50 (brine shrimp lethality), Artemia salina.
Setting [8] is: Amphibalanus amphitrite, cyprids of B. amphitrite, 48 h at 28 °C.

For `CCCCCCCCn1sc(Cl)c(Cl)c1=O` [Sea-Nine 211™, reference compound], the “LC50/EC50 ratio (therapeutic ratio)” value in series [1] is listed as 20.3. The compound further came in with an LC50 in series [1] (cyprids of B. amphitrite, 48 h at 28 °C, concentration where 50% of larvae were dead) of 88.7 µM. The EC50 in series [1] (setting [5]) was found to be 4.36 µM. For the same compound, the “EC50 value against B. amphitrite” value in series [2] is 1.23 µg/mL (≈ 4.36 µM).
Compound `COC(=O)c1c(C)cc(Oc2cc(C)cc(O)c2)cc1O` [compound 3, 4-Methoxyacyl-diorcinol] came in with an LC50 at 48 h in series [3] greater than 174 µM. The half-maximal effective concentration (EC50) in series [1] (setting [6]) is less than 10 µM; in series [1] (setting [5]) it was 7.43 µM. The 50% lethal concentration (LC50) in the series “in vivo” (setting [7]) was no less than 34.7 µM; in series [4], 34.7 µM.
`COc1cc(C)cc(Oc2cc(C)cc(OC)c2O)c1O` [compound 5, 3,3′-O-dimethylviolaceol-I] returned an LC50 at 48 h in series [3] greater than 172 µM. Besides, the EC50 in series [1] (setting [6]) worked out at 18.4 µM. Moreover, in series [1], the “LC50/EC50 ratio (therapeutic ratio)” value is greater than 9.35. Further, in “in vivo” (setting [7]), the 50% lethal concentration (LC50) came to 172 µM.
The like results for `COc1cc(C)cc(Oc2cc(C)cc(OC)c2OC)c1O` [compound 6, Cordyol D] were, in that order, greater than 164 µM, 18.2 µM, greater than 9.01 and 164 µM.
The like results for `Cc1cc(O)cc(Oc2cc(C)cc(OC(=O)c3ccccc3)c2)c1` [compound 10, 3-O-benzoyl-diorcinol] were, in that order, greater than 150 µM, 12.6 µM, greater than 11.9 and greater than 150 µM.
`Cc1c(Br)c(O)c(Br)c(Oc2c(Br)c(C)c(Br)c(O)c2Br)c1Br` [compound 13, 2,4,6,2′,4′,6′-Hexabromo-diorcinol]: the results for the LC50 (in series [3]; in the series “in vivo”) were 22 µM and 35.6 µM, respectively. Moreover, in series [1] (setting [8]), the EC50 worked out at 0.71 µM.
The matching figures for `COC(=O)c1c(C)c(Br)c(Oc2c(Br)c(C)c(Br)c(O)c2Br)c(Br)c1O` [compound 14, 2,6,2′,4′,6′-Pentabromo-4-methoxycarbonyl-diorcinol]: 29.3 µM, greater than 73.3 µM and 1.17 µM.
On to `Cc1cc(O)cc(Oc2cc(C)cc(OC(=O)c3ccc(Br)cc3)c2)c1` [compound 15, 3-O-p-Bromobenzoyl-diorcinol], for which, in series [3], the LC50 at 48 h was 60.5 µM. Further, the EC50 in series [1] (setting [6]) amounted to 2.42 µM. The compound also returned an LC50 in “in vivo” (setting [7]) greater than 121 µM.
